Data on six substances can be found in US8188046B2, “Amyloid beta peptides and methods of use” (University of South Florida, priority 2006, dated 2012).

Series [1] concerns BALB/c mice. The experiment in a line: Antibody titer by ELISA after adjuvant-free subcutaneous Abeta peptide vaccination. The class given is in vivo, mouse. Conditions: boost 50 ug/mice six months post third inoculation; ELISA 10 days later; no adjuvant. As for the experimental part: Peptides: Aβ 1-42 and related peptides were obtained from Synpep (Dublin, Calif.). Peptides for vaccination were reconstituted to 10 mg/ml in DMSO and further diluted to 2 mg/ml with phosphate buffered saline.
Mice: 10 weeks old female BALB/c mice from the Jackson laboratories were housed in Varian standard cages including amber igloos and vaccinated when 14 weeks old. A total of 28 mice were grouped into 7 vaccination groups each with four animals. Differently mutated Aβ1-42 peptides were used for each group and a 1×PBS (also containing 10% DMSO) as a control group. Initial subcutaneous vaccination began at 100 μg peptide in 100 μl VEHICLE and subsequent booster vaccinations proceeded at 100 μg peptide (100 μl) at two weeks intervals. A third inoculation was carried out with 50 μg peptide in 100 μl.
Bleeding and plasma collection procedures: 10 days after injection, mice were bled by submandibular phlebotomy into EDTA tubes, and plasma was separated by centrifugation at 1500 g for 20 minutes with StatSampler from StatSpin (MA). Plasma were isolated by centrifugation and frozen at −80° C.
Antibody titer determination: Anti-amyloid beta antibody (6E10) was purchased from Signet Laboratories (Dedham, Mass.) and used as positive control. […] Plates were read at 450 nm/630 nm, and samples with readings three times higher than controls were considered positive. […]

Series [2] deals with BALB/c mice. The experiment in a line: Mouse anti-Abeta IgG isotyping (Th1/Th2 response). The series is classed as in vivo. The conditions noted are these: n=4; for Anti-Abeta antibody isotype: peptide vaccination without adjuvant. The source says: To further confirm the inflammation issue, we detected type one and type two T cell response by using the mouse anti-Abeta IgG isotyping method. […] (see FIG. 10).

The subject of the next series is mice. The experiment in a line: T cell epitope mapping: antibody production after vaccination with DCs treated with Abeta fragments (FIG. 11). The series is classed as in vivo, mouse. The conditions noted are these: two vaccinations with DCs, 1×10^6 cells/mice, treated with 20 μg/million cell; ELISA 1:800 dilutions. The source says:
FIG. 11. Mapping result of T cell epitope with Abeta fragment carrying Dutch mutation by ELISA.

Series [3] deals with patients aged 50 to 85 years with probable AD. Conditions: with adjuvant QS-21 and polysorbate 80, cited from earlier work.

As for “PDM: Abeta 1-42 with Dutch mutation, aa16-24 KLVFFAQDV”, the “Long term antibody and memory response after boost” value in the series on BALB/c mice [1] was “induce long term antibody response and with a good memory response”. Also, the “Th response by antibody isotyping with adjuvant” value with BALB/c mice [2] (adjuvant MPL treated vaccine compared to no adjuvant) is listed as “adjuvant clearly induces a Th1 response”. Turning to “DAEFRHDSGYEVHHQKLVFFAQDVGSNKGAIIGLM [Abeta 1-35 carrying Dutch mutation, Aβ 1-35 with Dutch mutation]”, the Antibody production result with mice is reported as “antibody production”. Regarding “PFDM: Abeta 1-42 with both Flemish and Dutch mutation, aa16-24 KLVFFGQDV”, the Anti-Abeta antibody isotype result with BALB/c mice [2] was “IgG2a response”. Consider “AN1792: wild type amyloid beta 1-42 peptide used as a vaccine with adjuvant QS-21 and polysorbate 80”, for which the “Occurrence of meningoencephalitis, subset of patients” value in series [3] (Phase II) is 6%. The “Clinical benefits in follow up study of vaccinated patients” value in series [3] was “reduced AD-like pathology and improved cognition”. Consider “Abeta 1-25: Abeta fragment 1-25 [reference compound]”, for which the Antibody production entry in the series on mice was “no antibody production”.

As to “PFM: Abeta 1-42 with Flemish mutation, aa16-24 KLVFFGEDV”, the Anti-Abeta antibody isotype result in the series with BALB/c mice [2] was “IgG2a response”.
